Common to all, as to type: cell-based
In assay [1] the test system is human non-small cell lung carcinoma A549 cells. Description: Measurement of cytotoxic activity for human cancer cells (2), Sulforhodamine B, A549. The settings on record: 72 hours; for IC50: Homo sapiens, read-out: IC50 value for cell growth, A549 cells. The procedure:
(§1) Measurement of cytotoxic activity for human cancer cells (2)
(§2) Human colon cancer WiDr cells adjusted to a density of 6×10^4 cells/ml, human non-small cell lung carcinoma A549 cells adjusted to a density of 4×10^4 cells/ml or human prostate cancer DU-145 cells adjusted to a density of 6×10^4 cells/ml were dispensed into a 96 well test plate and cultured at 37° C. in a CO2 incubator. After 24 hours, varied concentration of the compound A, compound B or compound C was dispensed in 100 μl portions, and the cells were cultured at 37° C. for additional 72 hours in a CO2 incubator. After the culturing, the number of cells was determined using Sulforhodamine B, and the IC50 value of each compound for cell growth was calculated.

The subject of the next assay is HeLa S3 cells. The assay is described as follows: Measurement of cytotoxic activity for human cancer cells (1), Cell Counting Kit. Conditions: 72 h, cultured 3 days, read-out: IC50 value, cytotoxic activity (growth inhibition) for HeLa S3 cells. Here is the method: Measurement of cytotoxic activity for human cancer cells (1)
HeLa S3 cells adjusted to a density of 6×10^4 cells/ml were dispensed in 200 μl portions, and various concentrations of the compound A and compound B respectively in 4 μl portions, into a 96 well test plate, and cultured at 37° C. for 3 days in a CO2 incubator. After the culturing, the degree of cell growth was measured using Cell Counting Kit (mfd. by DOJINDO), and the growth inhibition ratio at each concentration was obtained to calculate the IC50 value.
(Formazan colour is commonly taken as a measure of viable cells.)

Assay [2] concerns human prostate cancer DU-145 cells. Description: Measurement of cytotoxic activity for human cancer cells (2), Sulforhodamine B, DU-145. The settings on record: 72 hours. Here is the method: as §1, §2
The subject of assay [3] is Human colon cancer WiDr cells. Description: Measurement of cytotoxic activity for human cancer cells (2), Sulforhodamine B, WiDr. Conditions: 72 hours. The procedure: as §1, §2
For assay [4], the system named is PAI-1 promoter gene expression in mink lung epithelial cells (MvlLu). Description: Measurement of TGF-β like activity, PAI-1 promoter luciferase reporter. From the text: Measurement of TGF-β like activity
In order to detect the TGF-β like activity, a screening system was constructed making use of the expression of a reporter gene. A fluorescent luciferase gene was transfected into downstream of the PAI-1 promoter gene of mink lung epithelial cells (MvlLu). in which expression of […] (PAI-1) is induced by TGF-β due to excess expression of TGF-β receptor (Journal of Biological Chemistxy, vol. 262, pp. 17467–17414, 1987), (Analytical Biochemistry, vol. 216, pp. 276–284, 1994).
Using the above cells, the luminous intensity obtained by adding each compound was used as the index of TGF-β like activity.
For orientation: A reporter such as luciferase makes a cellular process visible.

Some results are limits rather than exact numbers.

As to `CC1NC(=O)CC2/C=C/CCSSCC(NC1=O)C(=O)NC(C(C)C)C(O)CC(=O)O2` (stereo not drawn) [Compound A], in assay [1], the “cell growth inhibition activity for A549 cells” value was “excellent cell growth inhibition activity” and the half-maximal inhibitory concentration (IC50) is at most 0.005 µM. Besides, in the assay with HeLa S3 cells, the IC50 was found to be 1.6 µM. Further, the “cell growth inhibition activity for DU-145 cells” value in assay [2] is on record as “excellent cell growth inhibition activity”. Moreover, the “cell growth inhibition activity for WiDr cells” value in assay [3] is given as “excellent cell growth inhibition activity”.

Take `CCC(C)C1NC(=O)C2CSSCC/C=C/C(CC(=O)NC(C)C(=O)N2)OC(=O)CC1O` (stereo not drawn) [Compound B]: in assay [1], the “cell growth inhibition activity for A549 cells” value was “excellent cell growth inhibition activity”. The IC50 in assay [1] is at most 0.005 µM; in the assay with HeLa S3 cells it was 1.2 µM. Moreover, the “cell growth inhibition activity for DU-145 cells” value in assay [2] is “excellent cell growth inhibition activity”. The “cell growth inhibition activity for WiDr cells” value in assay [3] is recorded as “excellent cell growth inhibition activity”.

`CC(C)CC1NC(=O)C2CSSCC/C=C/C(CC(=O)NC(C)C(=O)N2)OC(=O)CC1O` (stereo not drawn) [Compound C]: in assay [1], the “cell growth inhibition activity for A549 cells” value was “excellent cell growth inhibition activity” and the IC50 was at most 0.005 µM. The “cell growth inhibition activity for DU-145 cells” value in assay [2] is listed as “excellent cell growth inhibition activity”. Further, the “cell growth inhibition activity for WiDr cells” value in assay [3] is on record as “excellent cell growth inhibition activity”.

Take TGF-β: in assay [4], the “luminous intensity induced by the expression of PAI-1 promoter gene” value is reported as “increased the luminous intensity”.

As usually defined, the IC50 is the concentration needed to halve the response being measured.
